Assay results published in patent publication US11440913B2, “Aminoimidazopyridazines as kinase inhibitors” (BRISTOL-MYERS SQUIBB COMPANY, priority 2017, dated 2022).
Where a name gives a salt, the structure may show the parent alone. Read-outs that look alike come from different tables or passages of the source.

What was measured:
[1] = molecular target: His-GST-TVMV-hRIPK1(1-324) (Homo sapiens (Human), UniProt Q13546); assay: RIPK1 HTRF Binding Assay; details: HTRF binding, 1 h at rt; read-out: RIPK1 (IC50)
Procedure, shortened: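 HTRF probe-displacement binding: 1 nM His-GST-TVMV-hRIPK1(1-324) (baculovirus construct), 90.6 nM probe, 0.2 nM anti-GST-Tb in 20 mM HEPES, 10 mM MgCl2, 0.015% Brij-35, 4 mM DTT, 0.05 mg/mL BSA. Incubated 1 h at rt; FRET 520/495 nm ratio, inhibition relative to DMSO-only wells.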

[2] = test system: MLKL phosphorylation in HT29-L23 human colorectal adenocarcinoma cells; assay: MLKL Phosphorylation High-Content Assay; format: cell-based; details: 6 h, necroptosis induced with TNFα, SMAC mimetic and Z-VAD, read-out: pMLKL (IC50)
Procedure, shortened: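 HT29-L23 cells pretreated 30 min at 37 °C with compound (6.25 to 0.106 μM final), then necroptosis induced with TNFα 35 ng/mL, SMAC mimetic 700 nM and Z-VAD 140 nM for 6 h. Fixed cells immunostained for MLKL pS358 and imaged; IC50 and Ymax from 4-parameter logistic fit.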

Chain of His-GST-TVMV-hRIPK1(1-324) (Q13546 1-324): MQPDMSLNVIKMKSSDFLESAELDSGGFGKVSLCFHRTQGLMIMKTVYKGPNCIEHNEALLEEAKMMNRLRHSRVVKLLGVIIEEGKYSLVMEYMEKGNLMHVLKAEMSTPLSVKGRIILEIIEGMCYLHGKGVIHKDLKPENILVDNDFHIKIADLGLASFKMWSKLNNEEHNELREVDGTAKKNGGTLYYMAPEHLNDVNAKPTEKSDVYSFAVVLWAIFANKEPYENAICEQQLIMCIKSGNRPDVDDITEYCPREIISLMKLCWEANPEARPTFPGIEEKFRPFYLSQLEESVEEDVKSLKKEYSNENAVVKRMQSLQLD

SMILES | IC50 [1] | IC50 ([2]; Homo sapiens) | IC50 [2]
COc1ncc(-c2ccc3nc(NC(=O)CC#N)cn3n2)cc1C(=O)NCc1cc(OC(F)(F)F)ccc1F [Example 33, 5-[2-(2-cyanoacetamido)imidazo[1,2-b]pyridazin-6-yl]-N-{[2-fluoro-5-(trifluoromethoxy)phenyl]methyl}-2-methoxypyridine-3-carboxamide] | 186 nM | 183 nM | –
CC(=O)Nc1cn2nc(-c3cnc(C)c(C(=O)NCc4cc(-c5cnn(C)c5)ccc4F)c3)ccc2n1 [Example 352, 5-{2-acetamidoimidazo[1,2-b]pyridazin-6-yl}-N-{[2-fluoro-5-(1-methyl-1H-pyrazol-4-yl)phenyl]methyl}-2-methylpyridine-3-carboxamide] | 125 nM | 394 nM | –
COc1ncc(-c2ccc3nc(NC(C)=O)cn3n2)cc1C(=O)NCc1cc(F)cc(F)c1OCC(C)C [Example 116, N-{[3,5-difluoro-2-(2-methylpropoxy)phenyl]methyl}-5-{2-acetamidoimidazo[1,2-b]pyridazin-6-yl}-2-methoxypyridine-3-carboxamide] | 10 nM | 3 nM | –
[2H]C([2H])([2H])Oc1nc(C)c(-c2ccc3nc(NC(C)=O)cn3n2)cc1C(=O)NCc1ccccc1OC(F)(F)F [Example 178, 5-{2-acetamidoimidazo[1,2-b]pyridazin-6-yl}-2-(deutero) methoxy-6-methyl-N-{[2-(trifluoromethoxy)phenyl]methyl} pyridine-3-carboxamide] | 4 nM | 20 nM | –
[2H]C([2H])([2H])[C@H](NC(=O)c1ccc(C)c(-c2ccc3nc(NC(C)=O)cn3n2)c1F)c1cc(OC(F)(F)F)ccc1F [Example 429, 3-{2-acetamidoimidazo [1,2-b]pyridazin-6-yl}-2-fluoro-N-[(1S)-1-[2-fluoro-5-(trifluoromethoxy)phenyl](2,2,2-Â^2Hâ,f)ethyl]-4-methylbenzamide] | 9 nM | 20 nM | –
COc1ncc(-c2ccc3nc(NC(C)=O)cn3n2)cc1C(=O)NCc1c(F)cccc1OCC(F)(F)F [Example 102, 5-{2-acetamidoimidazo[1,2-b]pyridazin-6-yl}-N-{[2-fluoro-6-(2,2,2-trifluoroethoxy)phenyl]methyl}-2-methoxypyridine-3-carboxamide] | 7 nM | 10 nM | –
COc1nc(C)c(-c2ccc3nc(NC(C)=O)cn3n2)cc1C(=O)NCc1c(F)ccc(F)c1OC [Example 285, N-[(3,6-difluoro-2-methoxyphenyl)methyl]-5-{2-acetamidoimidazo[1,2-b]pyridazin-6-yl}-2-methoxy-6-methylpyridine-3-carboxamide] | 17 nM | 23 nM | –
CC(=O)Nc1cn2nc(-c3cnc(C)c(C(=O)N[C@H](C)c4cc(OC(F)(F)F)ccc4F)c3)ccc2n1 (single isomer, unassigned) [Example 9-2] | 31 nM | 28 nM | –
COc1ncc(-c2ccc3nc(NC(C)=O)cn3n2)cc1C(=O)NCc1ccc(F)c(F)c1OC(C)C1CC1 (stereo not shown) [Example 132, N-{[2-(1-cyclopropylethoxy)-3,4-difluorophenyl]methyl}-5-{2-acetamidoimidazo[1,2-b]pyridazin-6-yl}-2-methoxypyridine-3-carboxamide] | 10 nM | – | 64 nM
CC(=O)Nc1cn2nc(-c3cc(F)c(F)c(C(=O)N[C@H](C)c4cc(OC(F)(F)F)ccc4F)c3)ccc2n1 [Example 367, 5-{2-acetamidoimidazo [1,2-b]pyridazin-6-yl}-2,3-difluoro-N-[(1R)-1-[2-fluoro-5-(trifluoromethoxy)phenyl]ethyl] benzamide] | 56 nM | 194 nM | –
[2H]C([2H])([2H])[C@@H](NC(=O)c1c(C)ccc(-c2ccc3nc(NC(C)=O)cn3n2)c1F)c1cc(OC(F)(F)F)ccc1F [Example 412, 3-{2-acetamidoimidazo [1,2-b]pyridazin-6-yl}-2-fluoro-N-[(1R)-1-[2-fluoro-5-(trifluoromethoxy)phenyl](2,2,2-Â^2Hâ,f)ethyl]-6-methylbenzamide] | 4 nM | 1 nM | –
CC(=O)Nc1cn2nc(-c3cc(C(=O)NCc4cc(OC(F)(F)F)ccc4F)ccc3Cl)ccc2n1 [Example 431, 4-chloro-3-{2-acetamidoimidazo [1,2-b]pyridazin-6-yl}-N-{[2-fluoro-5-(trifluoromethoxy)phenyl]methyl} benzamide] | 7 nM | 91 nM | –
Cc1nc(C)c(-c2ccc3nc(NC(=O)CO)cn3n2)cc1C(=O)NCc1cc(F)cc(F)c1O[C@H]1CCOC1 [Example 91, N-({3,5-difluoro-2-[(3S)-oxolan-3-yloxy]phenyl}methyl)-5-[2-(2-hydroxy-acetamido)imidazo[1,2-b]pyridazin-6-yl]-2,6-dimethylpyridine-3-carboxamide, TFA] | 61 nM | 442 nM | –
COc1ncc(-c2ccc3nc(NC(C)=O)cn3n2)cc1C(=O)NCc1cc(F)ccc1OC1CCCC1 [Example 166, N-{[2-(cyclopentyloxy)-5-fluorophenyl]methyl}-5-{2-acetamidoimidazo[1,2-b]pyridazin-6-yl}-2-methoxypyridine-3-carboxamide] | 4 nM | 1 nM | –
CC(=O)Nc1cn2nc(-c3ccc(C)c(C(=O)NCc4cc(F)ccc4C(=O)N4CCCCC4)c3)ccc2n1 [Example 408, 5-{2-acetamidoimidazo [1,2-b]pyridazin-6-yl}-N-{[5-fluoro-2-(piperidine-1-carbonyl)phenyl]methyl}-2-methylbenzamide] | 8 nM | 8 nM | –
CC(=O)Nc1cn2nc(-c3cc(C(=O)NCC[C@H](O)c4ccc(Cl)cc4)c(C)cc3C)ccc2n1 [Example 383, N-[(3S)-3-(4-chlorophenyl)-3-hydroxypropyl]-5-{2-acetamidoimidazo [1,2-b]pyridazin-6-yl}-2,4-dimethylbenzamide] | 3 nM | 3 nM | –
COc1ncc(-c2ccc3nc(NC(C)=O)cn3n2)cc1C(=O)N[C@H](C)c1cccc(OC(F)(F)F)c1 [Example 112, 5-{2-acetamidoimidazo[1,2-b]pyridazin-6-yl}-2-methoxy-N-[(1R)-1-[3-(trifluoromethoxy)phenyl](2,2,2-deutero)ethyl]pyridine-3-carboxamide] | 17 nM | – | 73 nM
COc1nc(C)c(-c2ccc3nc(NC(C)=O)cn3n2)cc1C(=O)NCc1cc(F)cc(OC(F)(F)F)c1 [Example 280, 5-{2-acetamidoimidazo[1,2-b]pyridazin-6-yl}-N-{[3-fluoro-5-(trifluoromethoxy)phenyl]methyl}-2-methoxy-6-methylpyridine-3-carboxamide] | 5 nM | 36 nM | –
COc1ncc(-c2ccc3nc(NC(C)=O)cn3n2)cc1C(=O)NC(C)c1cccc(OC(F)(F)F)c1 (stereo not shown) [Example 123, 5-{2-acetamidoimidazo[1,2-b]pyridazin-6-yl}-2-methoxy-N-{1-[3-(trifluoro-methoxy)phenyl]ethyl}pyridine-3-carboxamide] | 37 nM | 218 nM | –
[2H]C([2H])([2H])Oc1ncc(-c2ccc3nc(NC(C)=O)cn3n2)cc1C(=O)NCc1cc(F)cc(F)c1OC([2H])([2H])C1CC1 [Example 49, N-({2-[cyclopropyl(deutero)methoxy]-3,5-difluorophenyl}methyl)-5-{2-acetamidoimidazo[1,2-b]pyridazin-6-yl}-2-(D3)methoxypyridine-3-carboxamide] | 3 nM | 5 nM | –
